Source: ChEMBL document CHEMBL1129441, “Derivatives of the triazoloquinazoline adenosine antagonist (CGS15943) are selective for the human A3 receptor subtype” (J Med Chem, 1996)

What was measured:
Adenosine receptor A2a [1] = molecular target: T1, Adenosine receptor A2a (Rattus norvegicus, UniProt P30543); assay: Displacement of [3H]-[…] from Adenosine A2A receptor of rat striatal membranes; assay type: cell membranes, Membrane
Adenosine receptor A3 [2] = molecular target: T2, Adenosine receptor A3 (Homo sapiens, UniProt P0DMS8); assay: biochemical
T2 sequence (P0DMS8 whole entry): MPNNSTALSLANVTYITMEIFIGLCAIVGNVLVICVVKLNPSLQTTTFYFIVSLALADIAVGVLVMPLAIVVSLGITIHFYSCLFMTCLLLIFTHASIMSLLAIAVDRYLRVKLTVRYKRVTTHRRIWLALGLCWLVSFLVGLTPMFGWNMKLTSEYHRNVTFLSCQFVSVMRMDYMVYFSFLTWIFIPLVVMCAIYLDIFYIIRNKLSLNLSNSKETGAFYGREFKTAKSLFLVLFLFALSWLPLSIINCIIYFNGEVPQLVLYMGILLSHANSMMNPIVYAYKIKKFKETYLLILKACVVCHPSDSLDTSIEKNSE
Description: In vitro binding affinity at human Adenosine A3 receptor from HEK293 cells by [125I]AB-MECA displacement.

[3] = Relative binding to rat A2A and human A3 adenosine receptors (ratio of IC50)
[4] = Relative binding to rat A1 and human A3 adenosine receptors (ratio of IC50)
Adenosine receptor A1 [5] = molecular target: T3, Adenosine receptor A1 (Rattus norvegicus, UniProt P25099); assay: Displacement of [3H]-(R)-PIA from Adenosine A1 receptor of rat cerebral cortex membranes; assay type: cell membranes, Membrane
T3 sequence (P25099 whole entry): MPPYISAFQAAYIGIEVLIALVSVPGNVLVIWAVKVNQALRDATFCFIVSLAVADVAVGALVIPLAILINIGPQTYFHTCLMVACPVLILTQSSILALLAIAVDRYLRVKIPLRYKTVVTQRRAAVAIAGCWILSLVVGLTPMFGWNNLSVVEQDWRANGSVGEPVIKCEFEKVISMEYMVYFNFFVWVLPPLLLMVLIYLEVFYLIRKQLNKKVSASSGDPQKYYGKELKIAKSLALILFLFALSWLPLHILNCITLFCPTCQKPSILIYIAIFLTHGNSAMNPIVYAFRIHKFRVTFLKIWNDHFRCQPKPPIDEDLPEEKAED

[6] = molecular target: Adenosine receptor A2a (Rattus norvegicus) (UniProt P30543); assay: (§1) Binding affinity for Adenosine A2A receptor from rat striatal membranes using [3H]-[…]; conditions: concentration not given here
[7] = molecular target: T4, Adenosine receptor A1 (Rattus norvegicus) (UniProt P25099); assay: Binding affinity for Adenosine A1 receptor from rat cerebral cortex membranes using [3H]-(R)-PIA; assay type: tissue-based; conditions: concentration not given here
T4 sequence (whole entry): T3 sequence (P25099 whole entry)

Adenosine receptor A2a [8] = molecular target: T1, Adenosine receptor A2a; assay: as §1
Adenosine receptor A3 [9] = molecular target: T5, Adenosine receptor A3 (Rattus norvegicus, UniProt P28647)
T5 sequence (P28647 whole entry): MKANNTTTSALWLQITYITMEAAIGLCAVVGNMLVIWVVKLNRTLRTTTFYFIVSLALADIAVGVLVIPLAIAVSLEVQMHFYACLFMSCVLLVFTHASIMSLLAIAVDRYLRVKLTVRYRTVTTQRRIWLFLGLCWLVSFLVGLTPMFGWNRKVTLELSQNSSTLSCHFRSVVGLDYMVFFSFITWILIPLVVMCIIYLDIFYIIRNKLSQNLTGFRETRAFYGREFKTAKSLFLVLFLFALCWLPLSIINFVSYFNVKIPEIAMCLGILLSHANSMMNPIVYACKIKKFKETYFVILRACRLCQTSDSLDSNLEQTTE
Description: Binding affinity for Adenosine A3 receptor from rat striatal membranes

Adenosine receptor A1 [10] = molecular target: T3, Adenosine receptor A1; assay: Binding affinity for A1 receptors from rat cerebral cortex membranes using [3H]-(R(-PIA; assay type: tissue-based
Adenosine receptor A1 [11] = molecular target: T3, Adenosine receptor A1; assay: Binding affinity for Adenosine A1 receptor from rat cerebral cortex membranes using [3H](R)-PIA; assay type: tissue-based

T1 sequence (P30543 whole entry): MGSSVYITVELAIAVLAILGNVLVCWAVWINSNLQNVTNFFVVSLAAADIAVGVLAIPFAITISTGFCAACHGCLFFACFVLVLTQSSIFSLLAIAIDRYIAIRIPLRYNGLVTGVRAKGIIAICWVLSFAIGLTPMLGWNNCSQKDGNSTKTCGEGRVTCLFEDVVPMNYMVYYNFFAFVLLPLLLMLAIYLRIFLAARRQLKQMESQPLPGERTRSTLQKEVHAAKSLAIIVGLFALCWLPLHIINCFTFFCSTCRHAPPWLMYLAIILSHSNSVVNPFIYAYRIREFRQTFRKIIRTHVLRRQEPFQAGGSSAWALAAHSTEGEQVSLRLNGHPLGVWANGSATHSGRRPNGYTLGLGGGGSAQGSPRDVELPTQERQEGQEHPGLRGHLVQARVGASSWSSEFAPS
Chain of Adenosine receptor A2a (Rattus norvegicus) (P30543 whole entry): as above

SMILES | Ki (Adenosine receptor A2a [1]) [nM] | Ki (Adenosine receptor A3 [2]) [nM] | Ratio [3] | Ratio [4] | also measured
NCCCC(=O)Nc1nc2ccc(Cl)cc2c2nc(-c3ccco3)nn12 | 14.4 | 80.8 | 0.18 | 0.14 | –
CCCCC(=O)Nc1nc2ccc(Cl)cc2c2nc(-c3ccco3)nn12 | 48.8 | – | 2.3 | 1.3 | –
Oc1nc2ccc(Cl)cc2c2nc(-c3ccco3)nn12 | 4380 | – | 17 | 15 | Ki (Adenosine receptor A1 [5]): 3950 nM
O=C(Nc1nc2ccc(Cl)cc2c2nc(-c3ccc(Br)o3)nn12)c1ccccc1 | – | – | – | – | inhibition [6]: < 10%; inhibition [7]: < 10%
Nc1nc2ccc(Cl)cc2c2nc(-c3ccco3)nn12 [CGS-15943] | – | – | – | – | IC50 (Adenosine receptor A2a [8]): 3.3 nM; Ki (Adenosine receptor A3 [9]): 100000 nM
Nc1nc2ccc(Cl)cc2c2nc(-c3ccc(Br)o3)nn12 | – | 64 | – | – | IC50 (Adenosine receptor A2a [8]): 531 nM
CCOC(=O)C1=C(c2ccccc2)Nc2cc(C)c(C(=O)OCC)cc2C1/C=C/c1ccccc1 (stereo not given) | – | 0.11 | – | – | IC50 (Adenosine receptor A2a [8]): 4.77 nM; IC50 (Adenosine receptor A1 [10]): 5.93 nM
CC(C)(C)C(=O)Nc1nc2ccc(Cl)cc2c2nc(-c3ccco3)nn12 | 88.8 | – | 0.36 | 0.84 | –
CCCC(=O)Nc1nc2ccc(Cl)cc2c2nc(-c3ccco3)nn12 | 37.6 | – | 2.6 | 2.2 | –
Cc1ccc(-c2oc3ccc(Cl)cc3c(=O)c2Cl)c(OC(C)C)c1 | – | – | – | – | IC50 (Adenosine receptor A2a [8]): > 100 nM; Ki (Adenosine receptor A1 [11]): > 100000 nM
CCC(=O)Nc1nc2ccc(Cl)cc2c2nc(-c3ccco3)nn12 | – | – | 14 | 40 | –

More lines, main results first:

Ki (Adenosine receptor A2a [1]) [nM] | Ki (Adenosine receptor A3 [2]) [nM] | Ratio [3] | Ratio [4] | SMILES | also measured
36.3 | – | – | – | CC(=O)Nc1nc2ccc(Cl)cc2c2nc(-c3ccco3)nn12 | –
6960 | 1810 | 3.8 | 1 | CCCn1c(=O)n2nc(-c3ccco3)nc2c2cc(Cl)ccc21 | Ki (Adenosine receptor A1 [5]): 1850 nM
310 | 23.8 | 13 | 8.4 | O=C(Nc1nc2ccc(Cl)cc2c2nc(-c3ccco3)nn12)c1cccc(I)c1 | Ki (Adenosine receptor A1 [5]): 200 nM
135 | 32.9 | 4.1 | 2.8 | CC(C)(C)OC(=O)NCCCC(=O)Nc1nc2ccc(Cl)cc2c2nc(-c3ccco3)nn12 | –
273 | 3.03 | 90 | 220 | O=C(Nc1nc2ccc(Cl)cc2c2nc(-c3ccco3)nn12)c1ccccc1 | Ki (Adenosine receptor A1 [5]): 680 nM
